Data on 47 molecules can be found in EP0694535A1, “Non-peptidyl tachykinin receptor antagonists” (ELI LILLY AND COMPANY, priority 1994, dated 1996).

Counter-ions that a name gives are not always drawn.

As usually defined, the inhibition is the drop in the measured response relative to a control, in per cent. A word on the IC50: it is the midpoint of a concentration-inhibition curve.

This experiment has as its target T1, NK-1 receptor (Homo sapiens, UniProt P25103).
T1 construct: an aliquot of IM9 cells; endogenous in cells; host or cells: IM9 cells (whole cells)
Nature of the experiment: NK-1 Receptor Binding Assay (competition with labeled substance P on IM9 cells). The conditions noted are these: for inhibition at 20 µM / inhibition at 10 µM: inhibition of substance P binding to the NK-1 receptor, read-out: Percent Inhibition; for IC50: concentration which inhibits fifty percent of the binding of substance P, 20 pM labeled substance P, 45 minutes at 4°C. The protocol:
Radioreceptor binding assays were performed using a derivative of a previously published protocol. D.G. Payan, et al., Journal of Immunology, 133:3260-3265 (1984). In this assay an aliquot of IM9 cells (1 x 10⁶ cells/tube in […] medium supplemented with 10% fetal calf serum) was incubated with 20 pM […] substance P in the presence of increasing competitor concentrations for 45 minutes at 4°C.
The IM9 cell line is a well-characterized cell line which is readily available to the public. See. e.g., Annals of the New York Academy of Science, 190: 221-234 (1972); Nature (London), 251:443-444 (1974); Proceedings of the National Academy of Sciences (USA), 71:84-88 (1974). These cells were routinely cultured in RPMI 1640 supplemented with 50 µg/ml gentamicin sulfate and 10% fetal calf serum.
The reaction was terminated by filtration through a glass fiber filter harvesting system using filters previously soaked for 20 minutes in 0.1% polyethylenimine. Specific binding of labeled substance P was determined in the presence of 20 nM unlabeled ligand.
Column 1 provides the example number of the test antagonist compound. The next columns detail the substitution patterns of the test compound.

T1 sequence (P25103 whole entry): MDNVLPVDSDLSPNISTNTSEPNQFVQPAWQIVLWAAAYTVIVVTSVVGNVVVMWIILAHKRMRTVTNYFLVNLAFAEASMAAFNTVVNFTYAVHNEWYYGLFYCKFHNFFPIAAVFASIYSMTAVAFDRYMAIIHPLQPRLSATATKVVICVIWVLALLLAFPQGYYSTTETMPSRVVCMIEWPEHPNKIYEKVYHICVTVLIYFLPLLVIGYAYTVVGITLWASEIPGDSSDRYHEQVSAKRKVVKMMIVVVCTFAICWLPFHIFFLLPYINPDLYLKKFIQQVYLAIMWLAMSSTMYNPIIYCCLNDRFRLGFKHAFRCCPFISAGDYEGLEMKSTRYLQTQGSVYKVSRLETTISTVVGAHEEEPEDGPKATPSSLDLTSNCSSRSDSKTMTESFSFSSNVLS

For `c1ccc(-c2nc3ccccc3n2-c2ccccc2)cc1` [Example 1, 1,2-diphenylbenzimidazole], the inhibition at 20 µM worked out at 25%.

Turning to `COc1ccc(-c2nc3ccccc3n2-c2ccccc2)cc1` [Example 2, 1-phenyl-2-(4-methoxyphenyl)benzimidazole], the inhibition at 20 µM turned out to be 38%. Regarding `c1ccc(Cc2nc3ccccc3n2-c2ccccc2)cc1` [Example 3, 1-phenyl-2-phenylmethylbenzimidazole], the inhibition at 20 µM was found to be 30%.

As for `Clc1cccc(-c2nc3ccccc3n2-c2ccccc2)c1` [Example 4, 1-phenyl-2-(3-chlorophenyl)benzimidazole], the IC50 is 7 µM. For the molecule `Clc1ccc(-c2nc3ccccc3n2-c2ccccc2)cc1` [Example 5, 1-phenyl-2-(4-chlorophenyl)benzimidazole], the inhibition at 20 µM came to 38%. `COc1cccc(-c2nc3ccccc3n2-c2ccccc2)c1` [Example 6, 1-phenyl-2-(3-methoxyphenyl)benzimidazole] yielded a 50% inhibitory concentration (IC50) of 3.29 µM.

`O=[N+]([O-])c1ccc(-c2nc3ccccc3n2-c2ccccc2)cc1` [Example 7, 1-phenyl-2-(4-nitrophenyl)benzimidazole]: the IC50 was found to be 9.12 µM. In the case of `Clc1ccc(-n2c(-c3ccccc3)nc3ccccc32)cc1` [Example 8, 1-(4-chlorophenyl)-2-phenylbenzimidazole], the inhibition at 20 µM came out at 11%. As to `FC(F)(F)c1cccc(-c2nc3ccccc3n2-c2ccccc2)c1` [Example 9, 1-phenyl-2-(3-trifluoromethylphenyl)-benzimidazole], the inhibition at 20 µM worked out at 15%. As to `O=[N+]([O-])c1cccc(-c2nc3ccccc3n2-c2ccccc2)c1` [Example 10, 1-phenyl-2-(3-nitrophenyl)benzimidazole], the IC50 was 5 µM. In the case of `Clc1ccc(-c2nc3ccccc3n2-c2ccc(Cl)cc2)cc1` [Example 11, 1-(4-chlorophenyl)-2-(4-chlorophenyl)-benzimidazole], the inhibition at 20 µM is 19%.

`FC(F)(F)c1ccc(-c2nc3ccccc3n2-c2ccccc2)cc1` [Example 12, 1-phenyl-2(4-trifluoromethylphenyl)-benzimidazole] displayed an IC50 of 6.72 µM. `c1ccc(-n2c(-c3ccc4ccccc4c3)nc3ccccc32)cc1` [Example 13, 1-phenyl-2-(2-naphthyl)benzimidazole] registered an IC50 of 6.91 µM. `COc1cc(OC)cc(-c2nc3ccccc3n2-c2ccccc2)c1` [Example 14, 1-phenyl-2-(3,5-dimethoxyphenyl)benzimidazole] returned a concentration for half-maximal inhibition (IC50) of 1.54 µM.

With `COc1ccc(-c2nc3ccccc3n2-c2ccccc2)cc1OC` [Example 15, 1-phenyl-2-(3,4-dimethoxyphenyl)benzimidazole], the IC50 worked out at 2.98 µM. This IC50 lies about 1.9-fold higher than the previous one.

`COc1cc(-c2nc3ccccc3n2-c2ccccc2)cc(OC)c1OC` [Example 16, 1-phenyl-2-(3,4,5-trimethoxyphenyl)-benzimidazole] gave an IC50 of 0.64 µM.

In the case of `COc1ccc(-c2nc3ccccc3n2-c2ccc(Cl)cc2)cc1` [Example 17, 1-(4-chlorophenyl)-2-(4-methoxyphenyl)benzimidazole], the inhibition at 20 µM was 17%. Take `Cc1ccc(-c2nc3ccccc3n2-c2ccccc2)cc1` [Example 18, 1-phenyl-2-(4-methylphenyl)benzimidazole]: the inhibition at 20 µM came to 37%.

On to `Cc1cccc(-c2nc3ccccc3n2-c2ccccc2)c1` [Example 19, 1-phenyl-2-(3-methylphenyl)benzimidazole], for which the half-maximal inhibitory concentration (IC50) amounted to 1.1 µM.

`N#Cc1ccc(-c2nc3ccccc3n2-c2ccccc2)cc1` [Example 20, 1-phenyl-2-(4-cyanophenyl)benzimidazole] yielded an IC50 of 3.47 µM. This IC50 lies about 3.2-fold higher than the previous one. For `c1ccc(-n2c(C3CCCCC3)nc3ccccc32)cc1` [Example 21, 1-phenyl-2-cyclohexylbenzimidazole], the inhibition at 20 µM turned out to be 26%. In the case of `Clc1ccccc1-c1nc2ccccc2n1-c1ccccc1` [Example 22, 1-phenyl-2-(2-chlorophenyl)benzimidazole], the inhibition at 20 µM was determined as 65%. `Cc1ccccc1-c1nc2ccccc2n1-c1ccccc1` [Example 23, 1-phenyl-2-(2-methylphenyl)benzimidazole]: the inhibition at 20 µM amounted to 51%. Consider `COc1ccccc1-c1nc2ccccc2n1-c1ccccc1` [Example 24, 1-phenyl-2-(2-methoxyphenyl)benzimidazole], for which the IC50 came to 8.67 µM. For `N#Cc1cccc(-c2nc3ccccc3n2-c2ccccc2)c1` [Example 25, 1-phenyl-2-(3-cyanophenyl)benzimidazole], the IC50 turned out to be 3.27 µM. Consider `CN(C)CCn1c(-c2ccccc2)nc2ccccc21` [Example 26, 1-dimethylaminoethyl-2-phenylbenzimidazole dihydrochloride], for which the inhibition at 20 µM stood at 0%. In turn, `Clc1ccc(-c2nc3ccccc3n2-c2ccccc2)cc1Cl` [Example 27, 1-phenyl-2-(3,4-dichlorophenyl)benzimidazole] returned an IC50 of 6.61 µM. Consider `c1ccc(-c2nc3ccccc3n2CCN2CCCCC2)cc1` [Example 28, 1-(piperidin-1-ylethyl)-2-phenylbenzimidazole dihydrochloride], for which the inhibition at 20 µM stood at 16%. Take `Oc1ccc(-c2nc3ccccc3n2-c2ccccc2)cc1` [Example 29, 1-phenyl-2-(4-hydroxyphenyl)benzimidazole]: the inhibition at 20 µM amounted to 67%. Regarding `O=[N+]([O-])c1cc(-c2nc3ccccc3n2-c2ccccc2)ccc1Cl` [Example 30, 1-phenyl-2-(3-nitro-4-chlorophenyl)-benzimidazole], the inhibition at 20 µM was determined as 79%.

The molecule `CCCc1nc2ccccc2n1-c1ccccc1` [Example 32, 1-phenyl-2-propylbenzimidazole] had an IC50 of 10 µM. Molecule `c1ccc(-n2c(-c3cccs3)nc3ccccc32)cc1` [Example 33, 1-phenyl-2-(thien-2-yl)benzimidazole] gave a half-inhibitory concentration (IC50) of 3.98 µM.

`Oc1cccc(-c2nc3ccccc3n2-c2ccccc2)c1` [Example 34, 1-phenyl-2-(3-hydroxyphenyl)benzimidazole] showed an IC50 of 12 µM. For `CCCCCc1nc2ccccc2n1-c1ccccc1` [Example 35, 1-phenyl-2-pentylbenzimidazole hydrochloride], the inhibition at 20 µM was determined as 51%. Consider `FC(F)(F)c1ccccc1-c1nc2ccccc2n1-c1ccccc1` [Example 36, 1-phenyl-2-(2-trifluoromethylphenyl)-benzimidazole], for which the inhibition at 20 µM was 43%.

For the molecule `COc1ccc2c(c1)nc(-c1cc(OC)c(OC)c(OC)c1)n2Cc1ccccc1` [Example 38, 1-phenylmethyl-2-(3,4,5-trimethoxyphenyl)-5-methoxybenzimidazole], the half-inhibitory concentration (IC50) amounted to 1.05 µM.

With `COc1ccc2nc(-c3cc(OC)c(OC)c(OC)c3)n(Cc3ccccc3)c2c1` [Example 39, 1-phenylmethyl-2-(3,4,5-trimethoxyphenyl)-6-methoxybenzimidazole], the half-inhibitory concentration (IC50) is 0.427 µM.

As for `Cc1cccc(-c2nc3ccccc3n2Cc2ccc(Cl)cc2Cl)c1` [Example 63, 1-(2,4-Dichlorobenzyl)-2-(3-methylphenyl)benzimidazole], the inhibition at 10 µM turned out to be 36%. Take `COc1cccc(Cn2c(-c3cccc(C)c3)nc3ccccc32)c1` [Example 65, 1-(3-Methoxybenzyl)-2-(3-methylphenyl)benzimidazole]: the inhibition at 10 µM is 58%. In the case of `COc1ccc(Cn2c(-c3cccc(C)c3)nc3ccccc32)cc1` [Example 66, 1-(4-Methoxybenzyl)-2-(3-methylphenyl)benzimidazole], the inhibition at 10 µM was found to be 34%. On the same count and under the same terms, under `Cc1cccc(-c2nc3ccccc3n2Cc2cccc(O)c2)c1` [Example 67, 1-(3-hydroxybenzyl)-2-(3-methylphenyl)benzimidazole hydrobromide] stands 60%. `COc1cc(-c2nc3ccc(O)cc3n2Cc2ccccc2)cc(OC)c1OC` [Example 69, 1-benzyl-2-(3,4,5-trimethoxyphenyl)-6-(hydroxy)-benzimidazole hydrochloride] registered a half-inhibitory concentration (IC50) of 1.13 µM. This counts as single-digit micromolar. On the same count and under the same terms, under `COc1cc(-c2nc3ccc(OC(C)CN(C)C)cc3n2Cc2ccccc2)cc(OC)c1OC` (centres unmarked) [Example 78] stands 0.151 µM; under `COc1cc(-c2nc3ccc(OCCN(C)C)cc3n2Cc2ccccc2)cc(OC)c1OC` [Example 79, 1-benzyl-2-(3,4,5-trimethoxyphenyl)-6-[2-(N,N-dimethylamino)ethoxy]benzimidazole], 0.097 µM; under `COc1cc(-c2nc3ccc(OCCCN(C)C)cc3n2Cc2ccccc2)cc(OC)c1OC` [Example 80, 1-benzyl-2-(3,4,5-trimethoxyphenyl)-6-[3-(N,N-dimethylamino)propoxy]benzimidazole], 0.123 µM. The same measure, in the same setting: under `COc1cc(-c2nc3ccc(OCCN(C(C)C)C(C)C)cc3n2Cc2ccccc2)cc(OC)c1OC` [Example 81, 1-benzyl-2-(3,4,5-trimethoxyphenyl)-6-[2-(N,N-diisopropylamino)ethoxy]benzimidazole] stands 0.04 µM; under `COc1cc(-c2nc3ccc(OCCN4CCN(C)CC4)cc3n2Cc2ccccc2)cc(OC)c1OC` [Example 83, 1-benzyl-2-(3,4,5-trimethoxyphenyl)-6-[2-(4-methyl-1-piperazinyl)ethoxy]benzimidazole], 0.098 µM.
